According to patent publication US20250339402A1, “EFFECTIVE MEANS TO MODULATE NMDA RECEPTOR-MEDIATED TOXICITY” (FUNDAMENTAL PHARMA GMBH, priority 2022, published 2025):
pIC50: −log10 of the molar value. Counter-ions that a name gives are not always drawn.

Test system: Primary mouse hippocampal neurons
Experiment: Excitotoxic (glutamate/NMDA-induced) cell death in primary neuronal cultures, protection index
Assay type: cell-based
Conditions: Mus musculus, Hippocampal neuron; third subset; excitotoxic cell death in primary neuronal cultures
Protocol: Primary mouse hippocampal neurons were prepared as previously described (Bading & Greenberg, Science, 1991; 253: 912-914; Zhang et al, Neuron, 2007, 53: 549-562) and maintained in Neurobasal-A medium supplemented with 2% B27, 5 mM L-Glutamax, and 0.5% Penicillin/Streptomycin until challenged with NMDA on days in vitro (DIV) 10. Glutamate-induced cell death was analyzed in a real-time manner by monitoring nuclear localized mCherry with IncuCyte® S3 Live-Cell Analysis System (Sartorius AG, Germany). Primary neurons plated in 24 well plates were infected with rAAV-hSyn-mCherry on DIV3 and challenged with 1 μM or 20 μM glutamate on DIV10. All compounds were added to the culture 30 min prior to glutamate/NMDA insult. Images were acquired following the glutamate application for 24 h with a 2 h interval, where 9-16 images were obtained via a 20×objective for each condition at each time point. Cell deaths were quantified by analyzing the existence of nuclear localized mCheery via the Basic Analyzer with Incucyte® 2021 software, size and average intensity were used as exclusion criteria.
In order to evaluate the protective effects of various compounds, a quantification method was developed to determine each compound's protection index. The protection index (from 0.0 to 10.0) was calculated by the area above the curve (AAC) during a 24 h excitotoxic stimuli, where the cell survival was normalized to the 0 h (FIG. 2), following the equation: […]
Where AAC represents for each compound, AACbasal represents for the basal condition without excitotoxic insult, AACVeh represents for the vehicle control with excitotoxic insult. Based on the equation, vehicle (DMSO) has a protection index at 0.0 and compound P401 of WO 2020/079244 has a protection index at 6.0 (at 10 μM).
The inventors also performed experiments with Group A compounds at lower concentration in a 3-fold dilution matter ([…]: 3.0, 1.0, 0.3, 0.1, 0.03) and were able to achieve a similar protection effect as 10 μM compound P401, but at a lower concentration.

Row | SMILES | pIC50
1 | CC(C)C(c1cccc(Cl)c1F)N(CCN)CC(F)F (centres unmarked) [Compound 282, N′-[1-(3-chloro-2-fluoro-phenyl)-2-methyl-propyl]-N′-(2,2-difluoroethyl)ethane-1,2-diamine TFA salt] | 7.29
2 | N#Cc1cccc(C(N(CCN)C2CC2)C(F)(F)F)c1F (centres unmarked) [Compound 261, 3-[1-[2-aminoethyl(cyclopropyl)amino]-2,2,2-trifluoro-ethyl]-2-fluoro-benzonitrile hydrochloride] | 6.96
3 | C#Cc1cccc(C(C)N(CCN)C2CC2)c1F (centres unmarked) [Compound 295, N′-cyclopropyl-N′-[1-(3-ethynyl-2-fluoro-phenyl)ethyl]ethane-1,2-diamine TFA salt] | 7.49
4 | NCCN(C1CC1)C(c1cccc(Cl)c1F)C1CCCC1 (centres unmarked) [Compound 268] | 6.55
5 | CCCN(CCN)C(CC)c1cccc(Cl)c1F (centres unmarked) [Compound 262, N1-(1-(3-chloro-2-fluorophenyl)propyl)-N1-propylethane-1,2-diamine hydrochloride] | 8.00
6 | CC(c1cc(Cl)cs1)N(CCN)C1CC1 (centres unmarked) [Compound 279, N′-[1-(4-chloro-2-thienyl)ethyl]-N′-cyclopropyl-ethane-1,2-diamine hydrochloride] | 6.64
7 | CC(c1c(Cl)ccc(Cl)c1F)N(CCN)C1CC1 (centres unmarked) [Compound 242] | 6.52
8 | C=CCC(c1cccc(Cl)c1F)N(CCN)C1CC1 (centres unmarked) [Compound 271A, N′-[1-(3-chloro-2-fluoro-phenyl)but-3-enyl]-N′-cyclopropyl-ethane-1,2-diamine TFA salt] | 8.15
9 | CC(C)C(c1cccc(Cl)c1F)N(CCN)C1CC1 (centres unmarked) [Compound 225] | 8.30
10 | NCCN(C1CC1)C(c1cccc(Cl)c1F)C(F)(F)F (centres unmarked) [Compound 263, N^1-(1-(3-chloro-2-fluorophenyl)-2,2,2-trifluoroethyl)-N^1-cyclopropylethane-1,2-diamine hydrochloride] | 6.59
11 | NCCN(C1CC1)C(c1cccc(Cl)c1F)C(F)F (centres unmarked) [Compound 275, N1-(1-(3-chloro-2-fluorophenyl)-2,2-difluoroethyl)-N1-cyclopropylethane-1,2-diamine hydrochloride] | 6.33
12 | CCC(c1cccc(C#N)c1F)N(CCN)C1CC1 (centres unmarked) [Compound 257, 3-(1-((2-aminoethyl)(cyclopropyl)amino)propyl)-2-fluorobenzonitrile hydrochloride] | 7.96

Same assay, conditions: first subset; protection index from area above curve over 24 h glutamate/NMDA insult; compounds added 30 min before; 10 μM, Group A also at lower concentrations

Row | SMILES | Biological Activity Rating
13 | NCCN(Cc1cccc(Cl)c1)CC1CC1 [Compound 134] | B (With a protection index between 5.0 to 7.0, provides a comparable protection to compound P401 (10 μM) at 10 μM.)
14 | NCCN(Cc1cccc(Cl)c1)C1CCCCC1 [Compound 124] | B (With a protection index between 5.0 to 7.0, provides a comparable protection to compound P401 (10 μM) at 10 μM.)
15 | CCN(CCN)Cc1cccc(Cl)c1F [Compound 91] | A (With a protection index over 7.0, provides a significantly better protection over compound P401 (10 μM) at 10 μM.)
16 | C=CCN(CCN)Cc1cccc(Cl)c1F [Compound 160] | A (With a protection index over 7.0, provides a significantly better protection over compound P401 (10 μM) at 10 μM.)
17 | NCCN(Cc1cccc(Cl)c1F)CC(F)F [Compound 118, N1-(3-chloro-2-fluorobenzyl)-N1-(2,2-difluoroethyl)ethane-1,2-diamine] | C (With a protection index between 3.0 to 5.0, provides a significantly lower protection compared to compound P401 (10 μM) at 10 μM.)

Same assay, conditions: second subset; protection index from area above curve over 24 h glutamate/NMDA insult; compounds added 30 min before; 10 μM, Group A also at lower concentrations

Row | SMILES | Biological Activity Rating
18 | CC(c1cccc(Cl)c1F)N(CCN)C1CCCC1 (centres unmarked) [Compound 184, N1-(1-(3-chloro-2-fluorophenyl)ethyl)-N1-cyclopentylethane-1,2-diamine dihydrochloride] | A (With a protection index over 7.0, provides a significantly better protection over compound P401 (10 μM) at 10 μM.)

Same assay, conditions: third subset; A++++ or above correlates with IC50; A++ and A+++ as defined in the source

Row | SMILES | Biological Activity Rating
19 | CC(c1c(Cl)ccc(Cl)c1F)N(CCN)C1CC1 (centres unmarked) [Compound 242] | A+++
20 | NCCN(C1CC1)C(c1cccc(Cl)c1F)C(F)F (centres unmarked) [Compound 275, N1-(1-(3-chloro-2-fluorophenyl)-2,2-difluoroethyl)-N1-cyclopropylethane-1,2-diamine hydrochloride] | A+++
